Tests used:
Type in all cases: physicochemical
[1] = Water activity assay (stability of the crystal form in water with different activities); details: methanol/water, stirred two days, XRPD
Procedure: The stability of the crystal form in water with different activities was determined.
About 30 mg of the crystal form A of the compound of formula (II) was weighed and placed in a 1.5 mL liquid phase vial. A magnetic bar was added, and an appropriate amount of water activity agent in a system of methanol and water was pipetted into the liquid phase vial. The suspension sample was mixed well and then placed on a magnetic stirrer (25° C., 700 rpm). After stirring for two days, the wet sample was determined by XRPD.

[2] = Hygroscopicity study by dynamic vapor sorption (DVS)
Procedure: 1.4. Dynamic Vapor Sorption, DVS Method
Instrument model: SMS DVS Advantage dynamic vapor sorption apparatus
Test conditions: The sample (10 to 15 mg) is weighed and placed in a DVS sample pan for testing.
The detailed DVS parameters are as follows:
Equilibration: dm/dt=0.01%/min (The shortest time: 10 min, and the longest time: 180 min)
Drying: Dried for 120 min at 0% RH
RH (%) test gradient: 10%
Range of RH (%) test gradient: 0%-90%-0%
The classification of hygroscopicity evaluation is as follows:
10-15 mg of the crystal form A and the crystal form C of the compound of formula (II) were weighed and placed into a DVS sample pan for testing.

[3] = Stability assay under illumination, high humidity, high temperature and acceleration (related substances and crystal form); parameters: Total impurity: unit not given here; details: for Change of crystal form: 17 days
Procedure: The stability of crystal form of the crystal form A and the crystal form C of the compound of formula (II) under the conditions of illumination, high humidity (92.5% RH), high temperature (60° C.) and acceleration (40° C./75% RH) was investigated.
Illumination test chamber, model: SHH-100GD-2, conditions: 5000±500 lux (visible light) and 90 mw/cm^2 (ultraviolet).
Electrothermal blowing dry box, model: GZX-9140MBE, conditions: 60° C.
Constant temperature and humidity chamber, model: LDS-800Y, conditions: 40° C./75% RH.
Constant temperature and humidity chamber, model: SHH-250SD, conditions: 25° C., 92.5% RH.
An appropriate amount of the crystal form A of the compound of formula (II) was weighed and placed in a dry and clean weighing bottle. The sample was spread into a thin layer, and fully exposed to assay conditions (60° C., 92.5% RH, illumination) and acceleration conditions (40° C./75% RH). After 17 days, the compound was taken out and determined for related substances and crystal form. […]

[4] = Solubility assay in media with different pHs; details: for Solubility (24 hours) / Solubility (2 hours): 37° C.; for Final pH: filtrate of saturated solution
Procedure: (§1) 9 parts of 4 mg of the crystal form A of the compound of formula (II) were weighed and added to a 1.5 mL sample bottle, respectively, and then 1 mL of different media (0.1 mol/L HCl, 0.01 mol/L HCl, pH3.8 buffer solution, pH4.5 buffer solution, pH5.5 buffer solution, pH6.0 buffer solution, pH6.8 buffer solution, pH7.4 buffer solution, and water) were added, respectively. Based on the dissolution situation, the raw material compound was continuously added until a saturated solution was formed. The magnetic bar was added to the above suspension, and the suspension was placed on a magnetic stirrer (37° C., protected from light) and stirred. […] The upper layer of the sample was filtered with a filter membrane, and the pH value of the filtrate was determined. The saturated solubility of the compound was determined by HPLC.
as §1, with “C” for “A”

## COc1cc2ncnc(Nc3cccc(Cl)c3F)c2cc1N1CC2(CN(C)C2)OC1=O.Cc1ccc(S(=O)(=O)O)cc1 [crystal form A of the compound of formula (II)]
[1]; water activity 0.1 and 0.3, 25° C.
  Crystal form change in water activity assay: not changed
[1]; water activity greater than 0.3, 25° C.
  Crystal form change in water activity assay: changed to the crystal form C
[2]; 25° C. and 80% RH
  ΔW (weight increase by moisture absorption): 1.329%
[2]; 25° C., 80% RH
  Classification of hygroscopicity: slightly hygroscopic
[3]
  Stability compared with the crystal form D of the maleate of the compound of formula (I): better
[3]; 40° C. - 75% RH - 17 days
  Related substance at relative retention time 0.24: 0.03
  Related substance at relative retention time 0.67: 0.16
  Related substance at relative retention time 0.88: 0.04
  Related substance at relative retention time 0.92: 0.04
  Related substance at relative retention time 1.24: 0.15
  Related substance at relative retention time 1.30: 0.18
  Related substance at relative retention time 1.56: 0.04
  Related substance at relative retention time 1.76: 0.04
  Total impurity: 0.66
[3]; 60° C. - 17 days
  Related substance at relative retention time 0.24: 0.03
  Related substance at relative retention time 0.67: 0.91
  Related substance at relative retention time 0.88: 0.05
  Related substance at relative retention time 0.92: 0.03
  Related substance at relative retention time 1.24: 0.15
  Related substance at relative retention time 1.30: 0.16
  Related substance at relative retention time 1.56: 0.04
  Related substance at relative retention time 1.76: 0.07
  Total impurity: 1.44
[3]; 92.5% RH - 17 days
  Related substance at relative retention time 0.24: 0.03
  Related substance at relative retention time 0.67: 0.05
  Related substance at relative retention time 0.88: 0.04
  Related substance at relative retention time 0.92: 0.04
  Related substance at relative retention time 1.24: 0.14
  Related substance at relative retention time 1.30: 0.18
  Related substance at relative retention time 1.56: 0.04
  Related substance at relative retention time 1.76: 0.02
  Total impurity: 0.54
[3]; Illumination - 17 days
  Related substance at relative retention time 0.24: 0.03
  Related substance at relative retention time 0.67: 0.07
  Related substance at relative retention time 0.88: 0.04
  Related substance at relative retention time 0.92: 0.05
  Related substance at relative retention time 1.24: 0.13
  Related substance at relative retention time 1.30: 0.17
  Related substance at relative retention time 1.56: 0.04
  Total impurity: 0.46
[3]; Initial sample
  Related substance at relative retention time 0.24: 0.03
  Related substance at relative retention time 0.67: 0.05
  Related substance at relative retention time 0.88: 0.03
  Related substance at relative retention time 1.24: 0.15
  Related substance at relative retention time 1.30: 0.18
  Related substance at relative retention time 1.56: 0.04
  Total impurity: 0.53
[3]; acceleration (40° C./75% RH)
  Change of crystal form: not changed
[3]; high humidity (92.5% RH)
  Change of crystal form: changed
[3]; high temperature (60° C.)
  Change of crystal form: not changed
[3]; illumination
  Change of crystal form: not changed
[3]; illumination, high temperature, high humidity, acceleration
  Formation of degradation impurity (conclusion): produces a degradation impurity only under the condition of high temperature
[4]; 0.01 mol/L HCl
  Solubility (24 hours): 7.941 mg/mL
  Final pH: 3.59
[4]; buffer solutions below pH 6.8 and purified water
  Solubility (conclusion): high solubility
[4]; pH 3.8 buffer solution
  Final pH: 3.988
  Solubility (2 hours): 3.749 mg/mL
  Solubility (24 hours): 3.645 mg/mL
[4]; pH 4.5 buffer solution
  Final pH: 4.531
  Solubility (2 hours): 3.824 mg/mL
  Solubility (24 hours): 3.141 mg/mL
[4]; pH 5.5 buffer solution
  Final pH: 5.499
  Solubility (2 hours): 3.571 mg/mL
[4]; pH 6.0 buffer solution
  Final pH: 5.900
  Solubility (2 hours): 3.785 mg/mL
  Solubility (24 hours): 3.638 mg/mL
[4]; pH 6.8 buffer solution
  Final pH: 6.588
[4]; pH 7.4 buffer solution
  Final pH: 7.096
[4]; water
  Final pH: 5.296
  Solubility (2 hours): 2.720 mg/mL
[4]; merged cell: 0.1 mol/L HCl, 0.01 mol/L HCl, pH 3.8, 4.5, 5.5, 6.0 buffer solutions and water
  Evaluation of dissolution property: High solubility
[4]; merged cell: pH 6.8 and pH 7.4 buffer solutions
  Evaluation of dissolution property: Low solubility
